Laboratory results from article PMC8765781, “A platform of assays for the discovery of anti-Zika small-molecules with activity in a 3D-bioprinted outer-blood-retina model” (PLoS ONE, 2022).
Where two headings read alike, the source gives them in different places. *1 amine or outer side, *2 acyl side, *3 side chain or, on linkers, in order; H or OH if unused. Where a SMILES comes first, the peptide text is derived from it. Bridges are numbered along the chain shown (N, C = ends). [ ]: non-standard residue; d: D form. The star is where a group is joined. pTerphenylCO(4''-OnC5H11) = CCCCCOc1ccc(-c2ccc(-c3ccc(C(=O)*)cc3)cc2)cc1; Orn(4R-OH,5R-OH) = O=C([C@H](C[C@@H](O)[C@@H](O)N[*:3])N[*:1])[*:2]; hTyr(3S-OH,4S-OH) = N[C@H](C(=O)O)[C@H](O)[C@@H](O)c1ccc(O)cc1; Pro(3S-OH,4S-Me) = C[C@H]1CN[C@H](C(=O)O)[C@H]1O; Hyp = O=C(O)[C@@H]1C[C@@H](O)CN1

Legend:
[1] = test system: ZIKV-RLuc (Cambodian strain FSS13025); experiment: microbe, parasite or virus in culture; type: cell-based, Zika virus
[2] = test system: wild-type ZIKV (Ugandan MR766 strain) in Vero cells; experiment: ZIKV cytopathic effect (CPE) inhibition qHTS assay, CellTiter-Glo readout; type: cell-based, Zika virus; conditions: for Emax: read-out: Max response
[3] = Zika virus, Vero, read-out: Log AC50 (converted)
[4] = Zika virus, Vero, read-out: Log AC50 (M) (converted)
[5] = Zika virus, Vero, from Hill fit of the response curve, 50% of maximum activity response, 194 cherry-picked compounds, protocol name not given, read-out: AC50
[6] = Zika virus, Vero, potency in log units (Molar) from Hill fit of the response curve, 194 cherry-picked compounds, protocol name not given, read-out: Log AC50 (converted)
[7] = difference between neutral response and maximum compound response

Compound	Efficacy [2]	CC-v2 (curve class classification of the dose response curve) [2]	AC50 ([2]; Zika virus, Vero) [M]	AC50 [2, 4] [M]	other results
CC[C@@]1([C@@H]2O[C@@H]([C@H]3O[C@@](O)(CO)[C@H](C)C[C@@H]3C)C[C@@H]2C)CC[C@H]([C@]2(C)CC[C@]3(C[C@H](O)[C@@H](C)[C@@H]([C@@H](C)[C@@H](OC)[C@H](C)C(=O)O)O3)O2)O1 [NCGC00179454-04]	–	–	–	–	CC-v2 (curve class classification v2 of the dose response curve) [1]: 4; Efficacy (difference between neutral response and maximum compound response) [1]: 29.905; Max Resp (difference between neutral response and compound response for highest compound concentration) [1]: -20.473
COc1cc2nc(N3CCN(C(=O)c4ccco4)CC3)nc(N)c2cc1OC [NCGC00016740-18]	–	–	–	–	Max Resp (difference between neutral response and compound response for highest compound concentration) [1]: -5.44
CC(=O)O[C@H]1C[C@@H]2[C@]3(CC[C@]4(C)[C@@H](C5(C)CCC(C(C)(C)O)O5)[C@@H](O)C[C@@]24C)C[C@@]32CC[C@H](O[C@@H]3OC[C@@H](O)[C@H](O)[C@H]3O)C(C)(C)[C@H]12 (stereo partly shown) [NCGC00385494-01]	–	–	–	–	CC-v2 (curve class classification v2 of the dose response curve) [1]: 4; Efficacy (difference between neutral response and maximum compound response) [1]: 27.089; Max Resp (difference between neutral response and compound response for highest compound concentration) [1]: -22.612
CCOc1cc(N)c(Cl)cc1C(=O)NCC1CN(Cc2ccc(F)cc2)CCO1 (stereo not shown) [NCGC00160527-05]	–	–	–	–	CC-v2 (curve class classification v2 of the dose response curve) [1]: 4; Efficacy (difference between neutral response and maximum compound response) [1]: -16.441; Max Resp (difference between neutral response and compound response for highest compound concentration) [1]: -14.706
CC1OC(OC2C(O)COC(O[C@@H]3[C@@H](O)[C@@H](O)[C@H](OC4C(OC(=O)[C@]56CCC(C)(C)CC5C5=CCC7[C@@]8(C)C[C@H](O)[C@H](OC9OC(CO)C(O)C(O)C9O)[C@@](C)(CO)C8[C@H](O)C[C@@]7(C)[C@]5(C)CC6)OCC(O)C4O)O[C@H]3C)C2O)C(O)C(O)C1O (stereo partly shown) [NCGC00385323-01]	–	–	–	–	CC-v2 (curve class classification v2 of the dose response curve) [1]: -3; Max Resp (difference between neutral response and compound response for highest compound concentration) [1]: -39.964
CC(C)(N)C(=O)N[C@H](COCc1ccccc1)C(=O)N1CCC2(CC1)CN([S+](C)(=O)[O-])c1ccccc12 [NCGC00263115-01]	–	–	–	–	CC-v2 (curve class classification v2 of the dose response curve) [1]: 4; Efficacy (difference between neutral response and maximum compound response) [1]: -25.4; Max Resp (difference between neutral response and compound response for highest compound concentration) [1]: -0.591
CCOC(=O)C1=C(N)Oc2ccc(Br)cc2C1C(C#N)C(=O)OCC (stereo not shown) [NCGC00025207-16]	-33.191	–	–	–	AC50 [2]: 3.26e-05 M; Curve class [2]: -3; AC50 [2, 3]: 3.26e-05 M; Emax ([2]; Zika virus, Vero): -2.2%
C=C(C)C1CCC(C)C12CC(O)C1(C)OC1C2OC(=O)C(N)CCC(=O)O (stereo not shown) [NCGC00381118-01]	-55.082	-3	2.02e-05	2.02e-05	–
CC(=O)OC[C@]12C[C@H](OC(=O)CC(C)C)C(C)=C[C@H]1O[C@@H]1[C@H](O)C[C@@]2(C)[C@]12CO2 [NCGC00385002-01]	-46.392	–	–	–	Log AC50 (M) [2]: -5.6492 M; Max Resp [2]: -19.758; AC50 ([2]; read-out: AC50): 2.24e-06 M
Cc1cc(C(=O)Nc2cc(Nc3ccc4c(/C=C/c5ccccn5)[nH]nc4c3)ccc2F)n(C)n1 [NCGC00387023-01]	-55.32	–	3.66e-05	3.66e-05	–
CC(=O)CC1CCC(C(C)C(=O)OCC(O)CO)O1 (stereo not shown) [NCGC00381119-01]	-53.159	-3	2.91e-05	2.91e-05	–
CC1=CC2/C=C(\C)CCC(O)C3OC(C)(C)OC3CC(=O)OC23C(=O)NC(CC(C)C)C3C1C (stereo not shown) [NCGC00381131-01]	-69.811	-3	1.42e-05	1.42e-05	–
CN1CC2CN(c3ccc4oc5ccccc5c(=O)c4c3)CC2C1 (stereo not shown) [NCGC00371020-01]	-29.929	–	3.17e-05	3.17e-05	–
C=C1C(=O)O[C@@H]2/C=C(\CO)CC/C=C(/C=O)C[C@H](O)[C@@H]12 [NCGC00385803-01]	-41.449	–	6.51e-05	–	Curve class [2]: -3; AC50 [2, 3]: 6.51e-05 M; Emax ([2]; Zika virus, Vero): -37.5%
CC(C)C(=O)c1cn(CC(=O)COc2ccc(Oc3ccccc3)cc2)c2ccc(C(=O)O)cc12 [NCGC00378619-01]	-17.195	–	1.3e-05	1.3e-05	–
CN(C)c1cccc(-c2c3c(=O)n(-c4ccccc4Cl)[nH]c3cc(=O)n2C)c1 [NCGC00378460-08]	-22.536	–	2.91e-05	2.91e-05	–
CC1CCC2(C(=O)OC3OC(CO)C(O)C(O)C3O)CCC3(C)C(=CCC4C5(C)CCC(O)C(C)(CO)C5CCC43C)C2C1(C)O (stereo not shown) [NCGC00385137-01]	-66.194	-3	6.11e-06	6.11e-06	–
CO[C@H]1[C@H](O)[C@H](O[C@H]2CC[C@]3(C)C4CC[C@]5(C)[C@H](C6=CC(=O)OC6)CC[C@]5(O)C4CC[C@@H]3C2)O[C@@H](C)[C@@H]1O (stereo partly shown) [NCGC00180641-02]	-18.714	–	1e-06	1e-06	–
CCN(CC)C(=O)Nc1ccc(OCC(O)CNC(C)(C)C)c(C(C)=O)c1 (stereo not shown) [NCGC00344562-02]	-33.868	-3	3.26e-05	3.26e-05	–

Compound	Efficacy [2]	CC-v2 (curve class classification of the dose response curve) [2]	AC50 ([2]; Zika virus, Vero) [M]	AC50 [2, 4] [M]	other results
COc1cc2occc2c(O[C@@H]2O[C@H](CO)[C@@H](O)[C@H](O)[C@H]2O)c1CCC(=O)O [NCGC00168932-02]	-83.984	-3	1.59e-05	1.59e-05	–
CCCCCOc1cc2c(cc1-c1cc(/C=C/C(=O)O)ccc1O)C(C)(C)CCC2(C)C [NCGC00370868-01]	–	–	–	–	AC50 [2, 5]: 1.84e-05 M; AC50 [2, 6]: 1.84e-05 M; Efficacy [2, 7]: -36.339
C[C@H]1CC[C@@]2(OC1)O[C@H]1CC3[C@@H]4CC[C@@H]5C[C@@H](O[C@@H]6O[C@H](CO)[C@@H](O[C@@H]7O[C@H](CO[C@@H]8OC[C@@H](O)[C@H](O)[C@H]8O)[C@@H](O[C@@H]8O[C@H](CO)[C@H](O)[C@H](O)[C@H]8O)[C@H](O)[C@H]7O)[C@H](O)[C@H]6O)CC[C@]5(C)C4CC[C@]3(C)[C@H]1[C@@H]2C (stereo partly shown) [NCGC00385658-01]	–	–	–	–	AC50 [2, 5]: 3.48e-06 M; AC50 [2, 6]: 3.48e-06 M; Efficacy [2, 7]: -25.029
CC(C)(O)CCc1ccc(OCc2cc(-c3cccc(OC(F)F)c3)c3ncccc3c2)cc1 [NCGC00249759-02]	-26.837	–	3.26e-05	3.26e-05	–
CCCCCOc1ccc(-c2ccc(-c3ccc(C(=O)N[C@H]4C[C@@H](O)[C@@H](O)NC(=O)[C@@H]5[C@@H](O)[C@@H](C)CN5C(=O)[C@H]([C@@H](C)O)NC(=O)[C@H]([C@H](O)[C@@H](O)c5ccc(O)cc5)NC(=O)[C@@H]5C[C@@H](O)CN5C(=O)[C@H]([C@@H](C)O)NC4=O)cc3)cc2)cc1 [NCGC00386349-01] ({pTerphenylCO(4''-OnC5H11)}-[Orn(4R-OH,5R-OH)]T[Hyp][hTyr(3S-OH,4S-OH)]T[Pro(3S-OH,4S-Me)]; lactam 1-C)	-31.74	-2.2	1.26e-05	1.26e-05	–
C=C1C(=O)O[C@@H]2C[C@H](C)[C@@H]3CC(=O)C(C)=C3C[C@H]12 [NCGC00169080-02]	-111.978	–	6.51e-05	–	Curve class [2]: -3; AC50 [2, 3]: 6.51e-05 M; Emax ([2]; Zika virus, Vero): -89.7%
COc1cc(N(C)CCN(C)C)c(N)cc1Nc1nccc(-c2cn(C)c3ccccc23)n1 [NCGC00390638-01]	-48.353	-3	6.51e-05	6.51e-05	–
COc1c2c(c(C)c3c1C(=O)OC3)OC1(C)CC(O)C34OC(OC)(CCC3(C)C1C2)OC4(C)CO (stereo not shown) [NCGC00380890-01]	-69.031	-3	1.42e-05	1.42e-05	–
C=C(C)[C@@H]1CC=C(COC(=O)NC(=O)c2ncn3c(=O)n(C)nnc23)CC1 [NCGC00386754-01]	-41.908	-3	6.51e-05	6.51e-05	–
COc1ccc2c(OC)c3ccoc3nc2c1OC [NCGC00016333-05]	-23.663	–	1.84e-05	1.84e-05	–
C=C(C(=O)O)[C@@H]1CC[C@@]2(C)CCC[C@@](C)(O)[C@@H]2C1 [NCGC00169889-02]	-77.65	–	2.91e-05	–	Curve class [2]: -3; AC50 [2, 3]: 2.91e-05 M; Emax ([2]; Zika virus, Vero): -0.865%
c1ccc(CNc2nc(N3CCOc4ccccc43)nc3c2CCCC3)cc1 [NCGC00347065-03]	-32.702	–	5.17e-05	5.17e-05	–
CN1CCC(COc2cnc(-c3cccc(Cn4nc(-c5cccc(C#N)c5)ccc4=O)c3)nc2)CC1 [NCGC00345793-08]	-35.437	–	6.51e-05	6.51e-05	–
COc1cc2c(cc1O)C(c1ccc(O)cc1)C(C)C(C)C2 (stereo not shown) [NCGC00380925-01]	-32.851	-3	6.51e-05	6.51e-05	–
CC(C)(O)C(O)C(=O)OCc1ccc(O[C@@H]2O[C@H](CO)[C@@H](O)[C@H](O)[C@H]2O)cc1 (stereo partly shown) [NCGC00381128-01]	-65.299	-3	1e-05	1e-05	–
C=C(C)C(=O)OC1CC2(C)OC(=CC2=O)C(=C)CC2OC(=O)C(=C)C12 (stereo not shown) [NCGC00381113-01]	–	–	–	–	AC50 [2, 5]: 2.02e-05 M; AC50 [2, 6]: 2.02e-05 M; Efficacy [2, 7]: -29.164
CC1(C)C=CN2C(=O)C3=CCCN3C(=O)[C@@H]2C[C@@]12Nc1ccccc1C2=O [NCGC00380729-01]	-25.178	–	4.53e-05	4.53e-05	–
C[S+](=O)([O-])NC[C@H]1CC[C@H](Nc2nc3c(s2)CCSc2ccccc2-3)CC1 [NCGC00370875-01]	-44.692	-3	7.31e-05	7.31e-05	–
